Assays:
[1] = test system: NEK2; parameters: method as in Gao et al. [42]; settings: ref Gao et al. [42], cited from earlier work
[2] = biological target: SYK (Homo sapiens, UniProt P43405); parameters: method as in Gao et al. [42]; settings: ref Gao et al. [42]; cited from earlier work
[3] = test system: JNK1; parameters: method as in Gao et al. [42]; settings: ref Gao et al. [42], cited from earlier work
[4] = test system: IRAK4; parameters: method as in Gao et al. [42]; settings: ref Gao et al. [42], cited from earlier work
[5] = biological target: T1, FYN A (Homo sapiens, UniProt P06241); experiment: ADP-Glo Kinase Assay, tivozanib off-target testing; format: biochemical; settings: read-out: Experimental validation pIC50 (converted)
Description: (§1) The kinase inhibitors were dissolved to 1X Kinase Buffer with 5% DMSO by transferring 200nL of the buffer using ECHO525 Liquid handler (Labcyte). […] The dissolved kinases and 2.5X kinase buffer controls were transferred at 400nL using ECHO525. […] The 2.5X ATP/substrate working stocks were transferred at 400nL using ECHO525.
(§2) For the ADP detection, 1 μl ADP-Glo reagent was dispensed (Thermo Scientific Multidrop Combi nL). […] Next, 2 μl kinase detection reagent was dispensed with Thermo Scientific Multidrop Combi nL.
(§3) Kinase assay, kinase dilution and substrate buffers were as indicated by the manufacturer (Promega). The assays were performed in the same way as with the kinases from the Kinase Selectivity Profiling System + ADP-Glo Assay kits (see previous section). All the assays were done in three individual experiments, each having three replicates.
(§4) IC50 values from all the experiments were obtained with GraphPad Prism 7 (GraphPad Software, Inc. California, USA) using inhibitor vs. response—variable slope (four parameters) analysis. […] X-axis scale was set to log10.

[6] = test system: PIM1; parameters: method as in Gao et al. [42]; settings: ref Gao et al. [42], cited from earlier work
[7] = test system: PLK3; parameters: method as in Gao et al. [42]; settings: ref Gao et al. [42], cited from earlier work
[8] = test system: MELK; parameters: method as in Gao et al. [42]; settings: ref Gao et al. [42], cited from earlier work
[9] = biological target: InsR (Homo sapiens, UniProt P06213); parameters: method as in Gao et al. [42]; settings: ref Gao et al. [42], cited from earlier work
[10] = test system: ERK2; parameters: method as in Gao et al. [42]; settings: ref Gao et al. [42], cited from earlier work
[11] = test system: CHK1; parameters: method as in Gao et al. [42]; settings: ref Gao et al. [42], cited from earlier work
[12] = biological target: PYK2 (Homo sapiens, UniProt Q14289); parameters: method as in Gao et al. [42]; settings: ref Gao et al. [42], cited from earlier work
[13] = test system: MAPKAPK5; parameters: method as in Gao et al. [42]; settings: ref Gao et al. [42], cited from earlier work
[14] = biological target: BRK (Homo sapiens, UniProt Q13882); parameters: method as in Gao et al. [42]; settings: ref Gao et al. [42], cited from earlier work
[15] = biological target: T1, FYN A; parameters: method as in Gao et al. [42]; settings: ref Gao et al. [42], cited from earlier work
[16] = test system: MKNK2 (MNK2); parameters: method as in Gao et al. [42]; settings: ref Gao et al. [42], cited from earlier work
[17] = test system: ALK; parameters: method as in Gao et al. [42]; settings: ref Gao et al. [42], cited from earlier work
[18] = test system: EEF2K; parameters: method as in Gao et al. [42]; settings: ref Gao et al. [42], cited from earlier work
[19] = test system: PLK1; parameters: method as in Gao et al. [42]; settings: ref Gao et al. [42]; cited from earlier work
[20] = test system: BRSK1; parameters: method as in Gao et al. [42]; settings: ref Gao et al. [42], cited from earlier work
[21] = test system: AKT1; parameters: method as in Gao et al. [42]; settings: ref Gao et al. [42], cited from earlier work
[22] = test system: BLK; parameters: method as in Gao et al. [42]; settings: ref Gao et al. [42], cited from earlier work
[23] = biological target: FLT4 (Homo sapiens, UniProt P35916); parameters: method as in Gao et al. [42]; settings: ref Gao et al. [42], cited from earlier work
[24] = test system: CDK2; parameters: method as in Gao et al. [42]; settings: ref Gao et al. [42], cited from earlier work
[25] = test system: Aurora B; parameters: method as in Gao et al. [42]; settings: ref Gao et al. [42], cited from earlier work
[26] = test system: PRKX; parameters: method as in Gao et al. [42]; settings: ref Gao et al. [42], cited from earlier work
[27] = test system: CHK2; parameters: method as in Gao et al. [42]; settings: ref Gao et al. [42], cited from earlier work
[28] = test system: RET; parameters: method as in Gao et al. [42]; settings: ref Gao et al. [42], cited from earlier work
[29] = test system: FMS; parameters: method as in Gao et al. [42]; settings: ref Gao et al. [42], cited from earlier work
[30] = test system: ROS1; parameters: method as in Gao et al. [42]; settings: ref Gao et al. [42], cited from earlier work
[31] = test system: EPHA2; parameters: method as in Gao et al. [42]; settings: ref Gao et al. [42], cited from earlier work
[32] = test system: JAK2; parameters: method as in Gao et al. [42]; settings: ref Gao et al. [42], cited from earlier work
[33] = biological target: T2, RPS6KB1 (Homo sapiens, UniProt P23443); experiment: ADP-Glo Kinase Assay, tivozanib off-target testing; format: biochemical; settings: read-out: Experimental validation pIC50 (converted)
T2 construct: purchased SignalChem R21-10H-10
Description: as §1, §2, §3, §4

[34] = biological target: LCK (Homo sapiens, UniProt P06239); parameters: method as in Gao et al. [42]; settings: ref Gao et al. [42], cited from earlier work

T1 sequence (P06241 whole entry): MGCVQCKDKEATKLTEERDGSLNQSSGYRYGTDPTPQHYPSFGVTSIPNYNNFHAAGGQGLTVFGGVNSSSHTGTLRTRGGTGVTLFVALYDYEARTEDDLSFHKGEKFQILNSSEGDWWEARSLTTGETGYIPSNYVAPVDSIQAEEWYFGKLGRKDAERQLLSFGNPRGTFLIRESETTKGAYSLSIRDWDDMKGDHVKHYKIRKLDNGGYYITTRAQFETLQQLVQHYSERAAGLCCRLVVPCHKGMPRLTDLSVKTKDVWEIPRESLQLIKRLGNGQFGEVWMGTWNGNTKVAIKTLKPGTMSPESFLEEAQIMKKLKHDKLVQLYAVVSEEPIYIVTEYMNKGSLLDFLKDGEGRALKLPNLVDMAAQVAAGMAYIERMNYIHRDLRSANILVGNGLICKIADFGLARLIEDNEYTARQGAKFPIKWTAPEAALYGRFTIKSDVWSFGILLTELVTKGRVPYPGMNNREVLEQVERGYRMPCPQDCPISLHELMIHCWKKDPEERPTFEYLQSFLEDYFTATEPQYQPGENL
Sequence of PYK2 (Q14289 whole entry): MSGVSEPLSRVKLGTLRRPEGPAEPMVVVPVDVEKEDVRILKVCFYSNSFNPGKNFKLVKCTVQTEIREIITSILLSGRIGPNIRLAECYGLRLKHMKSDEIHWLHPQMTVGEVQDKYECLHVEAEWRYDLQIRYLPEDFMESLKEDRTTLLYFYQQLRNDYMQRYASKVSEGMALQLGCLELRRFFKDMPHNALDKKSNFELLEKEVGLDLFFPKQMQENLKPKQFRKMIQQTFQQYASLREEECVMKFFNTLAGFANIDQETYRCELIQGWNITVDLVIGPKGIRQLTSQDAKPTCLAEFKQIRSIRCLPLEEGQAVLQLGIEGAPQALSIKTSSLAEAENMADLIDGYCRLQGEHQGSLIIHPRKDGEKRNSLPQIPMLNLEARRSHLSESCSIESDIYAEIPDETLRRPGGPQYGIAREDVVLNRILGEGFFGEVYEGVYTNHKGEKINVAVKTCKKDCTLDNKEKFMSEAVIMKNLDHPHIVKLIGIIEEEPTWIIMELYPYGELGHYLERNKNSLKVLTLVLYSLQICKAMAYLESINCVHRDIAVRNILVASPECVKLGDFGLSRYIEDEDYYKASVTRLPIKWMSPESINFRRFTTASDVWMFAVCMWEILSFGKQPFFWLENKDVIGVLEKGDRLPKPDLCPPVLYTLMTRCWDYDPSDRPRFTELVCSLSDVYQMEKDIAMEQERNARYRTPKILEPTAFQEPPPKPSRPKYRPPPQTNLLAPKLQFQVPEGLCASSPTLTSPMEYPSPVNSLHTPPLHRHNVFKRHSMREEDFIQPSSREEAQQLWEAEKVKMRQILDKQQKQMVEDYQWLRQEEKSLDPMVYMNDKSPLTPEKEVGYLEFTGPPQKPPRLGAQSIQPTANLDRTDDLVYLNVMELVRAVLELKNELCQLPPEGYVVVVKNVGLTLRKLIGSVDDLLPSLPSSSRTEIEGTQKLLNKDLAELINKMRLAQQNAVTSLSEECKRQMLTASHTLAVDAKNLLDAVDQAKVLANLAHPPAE
Sequence of FLT4 (P35916 25-1363): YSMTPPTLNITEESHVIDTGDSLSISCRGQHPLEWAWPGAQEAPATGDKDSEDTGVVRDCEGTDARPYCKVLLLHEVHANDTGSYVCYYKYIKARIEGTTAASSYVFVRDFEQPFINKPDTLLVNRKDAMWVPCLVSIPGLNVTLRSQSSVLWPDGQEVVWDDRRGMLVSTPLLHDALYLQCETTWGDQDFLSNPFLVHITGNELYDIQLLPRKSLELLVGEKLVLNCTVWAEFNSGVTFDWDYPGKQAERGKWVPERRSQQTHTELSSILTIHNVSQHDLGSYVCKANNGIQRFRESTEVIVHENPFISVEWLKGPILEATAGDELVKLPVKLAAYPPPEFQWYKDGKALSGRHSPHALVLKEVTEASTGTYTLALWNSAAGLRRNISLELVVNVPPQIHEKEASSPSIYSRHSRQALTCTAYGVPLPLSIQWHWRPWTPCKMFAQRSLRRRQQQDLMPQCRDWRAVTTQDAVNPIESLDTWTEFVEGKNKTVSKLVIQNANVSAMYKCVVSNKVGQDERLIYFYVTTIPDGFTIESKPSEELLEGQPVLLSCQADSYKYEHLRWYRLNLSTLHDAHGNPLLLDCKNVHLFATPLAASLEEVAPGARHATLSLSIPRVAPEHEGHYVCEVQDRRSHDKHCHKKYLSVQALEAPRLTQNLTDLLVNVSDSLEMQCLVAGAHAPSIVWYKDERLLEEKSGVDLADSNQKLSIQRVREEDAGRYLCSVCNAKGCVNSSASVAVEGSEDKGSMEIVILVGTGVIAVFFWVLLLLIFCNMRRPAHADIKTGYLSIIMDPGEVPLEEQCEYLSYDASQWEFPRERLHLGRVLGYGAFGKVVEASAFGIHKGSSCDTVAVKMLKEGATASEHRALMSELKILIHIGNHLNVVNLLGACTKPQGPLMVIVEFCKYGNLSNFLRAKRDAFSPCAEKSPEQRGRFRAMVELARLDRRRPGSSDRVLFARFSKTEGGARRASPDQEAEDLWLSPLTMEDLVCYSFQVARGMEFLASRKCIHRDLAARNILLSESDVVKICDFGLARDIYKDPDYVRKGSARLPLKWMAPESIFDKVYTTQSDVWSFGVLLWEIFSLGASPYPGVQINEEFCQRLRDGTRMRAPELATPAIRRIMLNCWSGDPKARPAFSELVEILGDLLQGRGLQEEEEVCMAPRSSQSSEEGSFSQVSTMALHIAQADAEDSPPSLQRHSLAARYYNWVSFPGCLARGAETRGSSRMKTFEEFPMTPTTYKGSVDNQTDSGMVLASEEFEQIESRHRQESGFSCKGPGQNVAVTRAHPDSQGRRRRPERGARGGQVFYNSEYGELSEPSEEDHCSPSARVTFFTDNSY
Sequence of BRK (Q13882 whole entry): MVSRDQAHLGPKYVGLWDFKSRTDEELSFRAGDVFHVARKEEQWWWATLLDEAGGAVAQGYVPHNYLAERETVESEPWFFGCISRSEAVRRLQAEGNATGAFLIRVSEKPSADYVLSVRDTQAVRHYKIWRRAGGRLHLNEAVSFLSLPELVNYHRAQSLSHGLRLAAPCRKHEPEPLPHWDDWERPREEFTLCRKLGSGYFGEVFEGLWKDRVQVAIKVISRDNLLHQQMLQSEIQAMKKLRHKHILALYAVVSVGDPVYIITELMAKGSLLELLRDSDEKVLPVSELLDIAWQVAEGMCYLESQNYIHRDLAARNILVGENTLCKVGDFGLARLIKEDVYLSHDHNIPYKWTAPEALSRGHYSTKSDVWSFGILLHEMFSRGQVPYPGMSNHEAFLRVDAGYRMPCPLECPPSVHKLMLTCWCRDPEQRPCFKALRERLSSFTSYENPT
Sequence of InsR (P06213 28-1382): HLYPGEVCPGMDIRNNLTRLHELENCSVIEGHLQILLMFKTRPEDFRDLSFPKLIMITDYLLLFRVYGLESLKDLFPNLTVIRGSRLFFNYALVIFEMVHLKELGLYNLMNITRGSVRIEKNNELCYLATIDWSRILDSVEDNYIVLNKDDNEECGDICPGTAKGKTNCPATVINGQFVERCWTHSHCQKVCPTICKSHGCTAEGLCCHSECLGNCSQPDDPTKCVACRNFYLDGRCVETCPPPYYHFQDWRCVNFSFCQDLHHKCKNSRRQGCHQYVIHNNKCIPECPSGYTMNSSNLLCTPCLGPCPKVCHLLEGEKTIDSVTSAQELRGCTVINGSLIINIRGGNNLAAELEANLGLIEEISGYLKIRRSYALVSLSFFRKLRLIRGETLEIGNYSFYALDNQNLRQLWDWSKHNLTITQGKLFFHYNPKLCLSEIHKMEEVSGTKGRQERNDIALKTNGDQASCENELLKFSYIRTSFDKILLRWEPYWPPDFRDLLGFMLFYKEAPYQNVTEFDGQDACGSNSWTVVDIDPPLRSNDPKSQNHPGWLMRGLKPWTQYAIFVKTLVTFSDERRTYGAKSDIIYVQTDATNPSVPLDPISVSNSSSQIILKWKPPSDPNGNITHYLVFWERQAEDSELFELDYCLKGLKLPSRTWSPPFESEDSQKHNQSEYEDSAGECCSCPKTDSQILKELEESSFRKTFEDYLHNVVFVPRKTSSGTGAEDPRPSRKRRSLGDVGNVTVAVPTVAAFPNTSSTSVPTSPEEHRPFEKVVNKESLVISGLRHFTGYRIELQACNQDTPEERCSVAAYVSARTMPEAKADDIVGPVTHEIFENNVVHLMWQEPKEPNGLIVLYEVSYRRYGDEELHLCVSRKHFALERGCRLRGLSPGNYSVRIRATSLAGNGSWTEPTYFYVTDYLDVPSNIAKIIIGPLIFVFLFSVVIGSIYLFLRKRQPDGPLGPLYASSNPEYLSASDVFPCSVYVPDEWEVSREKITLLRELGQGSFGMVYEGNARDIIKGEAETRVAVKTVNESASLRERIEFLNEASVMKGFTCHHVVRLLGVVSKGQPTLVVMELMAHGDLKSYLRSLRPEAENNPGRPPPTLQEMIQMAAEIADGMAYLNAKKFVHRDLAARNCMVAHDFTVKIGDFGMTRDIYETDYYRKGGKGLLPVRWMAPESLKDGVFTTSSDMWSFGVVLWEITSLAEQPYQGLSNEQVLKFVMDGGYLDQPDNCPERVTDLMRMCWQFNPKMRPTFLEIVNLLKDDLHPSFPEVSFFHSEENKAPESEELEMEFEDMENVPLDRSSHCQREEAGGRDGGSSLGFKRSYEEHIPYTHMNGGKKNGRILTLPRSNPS

## COc1cc2nccc(Oc3ccc(NC(=O)Nc4cc(C)on4)c(Cl)c3)c2cc1OC [TIVOZANIB, Tivozanib]
[1]; 1 µM
  Gao et al. % of activity remaining at 1 µM: 88%
[1]; 10 µM
  Gao et al. % of activity remaining at 10 µM: 100%
[2]
  Gao et al. % of activity remaining at 10 µM: 73%
[3]; 1 µM
  Gao et al. % of activity remaining at 1 µM: 120%
[3]; 10 µM
  Gao et al. % of activity remaining at 10 µM: 109%
[4]; 1 µM
  Gao et al. % of activity remaining at 1 µM: 85%
[4]; 10 µM
  Gao et al. % of activity remaining at 10 µM: 47%
[5]
  IC50: 398 nM
[6]; 1 µM
  Gao et al. % of activity remaining at 1 µM: 95%
[6]; 10 µM
  Gao et al. % of activity remaining at 10 µM: 86%
[7]; 1 µM
  Gao et al. % of activity remaining at 1 µM: 85%
[7]; 10 µM
  Gao et al. % of activity remaining at 10 µM: 87%
[8]; 1 µM
  Gao et al. % of activity remaining at 1 µM: 91%
[8]; 10 µM
  Gao et al. % of activity remaining at 10 µM: 80%
[9]; 1 µM
  Gao et al. % of activity remaining at 1 µM: 102%
[9]; 10 µM
  Gao et al. % of activity remaining at 10 µM: 29%
[10]; 1 µM
  Gao et al. % of activity remaining at 1 µM: 103%
[10]; 10 µM
  Gao et al. % of activity remaining at 10 µM: 104%
[11]; 1 µM
  Gao et al. % of activity remaining at 1 µM: 89%
[11]; 10 µM
  Gao et al. % of activity remaining at 10 µM: 100%
[12]; 1 µM
  Gao et al. % of activity remaining at 1 µM: 34%
[12]; 10 µM
  Gao et al. % of activity remaining at 10 µM: 8%
[13]; 1 µM
  Gao et al. % of activity remaining at 1 µM: 99%
[13]; 10 µM
  Gao et al. % of activity remaining at 10 µM: 70%
[14]; 1 µM
  Gao et al. % of activity remaining at 1 µM: 2%
[14]; 10 µM
  Gao et al. % of activity remaining at 10 µM: -1%
[15]; 1 µM
  Gao et al. % of activity remaining at 1 µM: 5%
[15]; 10 µM
  Gao et al. % of activity remaining at 10 µM: 1%
[16]; 1 µM
  Gao et al. % of activity remaining at 1 µM: 105%
[16]; 10 µM
  Gao et al. % of activity remaining at 10 µM: 64%
[17]; 1 µM
  Gao et al. % of activity remaining at 1 µM: 83%
[17]; 10 µM
  Gao et al. % of activity remaining at 10 µM: 38%
[18]; 1 µM
  Gao et al. % of activity remaining at 1 µM: 84%
[18]; 10 µM
  Gao et al. % of activity remaining at 10 µM: 116%
[19]
  Gao et al. % of activity remaining at 10 µM: 75%
[20]; 1 µM
  Gao et al. % of activity remaining at 1 µM: 65%
[20]; 10 µM
  Gao et al. % of activity remaining at 10 µM: 46%
[21]; 1 µM
  Gao et al. % of activity remaining at 1 µM: 97%
[21]; 10 µM
  Gao et al. % of activity remaining at 10 µM: 101%
[22]; 1 µM
  Gao et al. % of activity remaining at 1 µM: 2%
[22]; 10 µM
  Gao et al. % of activity remaining at 10 µM: 0%
[23]; 1 µM
  Gao et al. % of activity remaining at 1 µM: -1%
[23]; 10 µM
  Gao et al. % of activity remaining at 10 µM: -1%
[24]; 1 µM
  Gao et al. % of activity remaining at 1 µM: 98%
[24]; 10 µM
  Gao et al. % of activity remaining at 10 µM: 86%
[25]; 1 µM
  Gao et al. % of activity remaining at 1 µM: 3%
[25]; 10 µM
  Gao et al. % of activity remaining at 10 µM: 1%
[26]; 1 µM
  Gao et al. % of activity remaining at 1 µM: 97%
[26]; 10 µM
  Gao et al. % of activity remaining at 10 µM: 59%
[27]; 1 µM
  Gao et al. % of activity remaining at 1 µM: 79%
[27]; 10 µM
  Gao et al. % of activity remaining at 10 µM: 30%
[28]; 1 µM
  Gao et al. % of activity remaining at 1 µM: 0%
[28]; 10 µM
  Gao et al. % of activity remaining at 10 µM: -1%
[29]; 1 µM
  Gao et al. % of activity remaining at 1 µM: 0%
[29]; 10 µM
  Gao et al. % of activity remaining at 10 µM: 0%
[30]; 1 µM
  Gao et al. % of activity remaining at 1 µM: 24%
[30]; 10 µM
  Gao et al. % of activity remaining at 10 µM: 16%
[31]; 1 µM
  Gao et al. % of activity remaining at 1 µM: -3%
[31]; 10 µM
  Gao et al. % of activity remaining at 10 µM: -3%
[32]; 1 µM
  Gao et al. % of activity remaining at 1 µM: 114%
[32]; 10 µM
  Gao et al. % of activity remaining at 10 µM: 114%
[33]
  IC50: > 12500 nM
[34]; 1 µM
  Gao et al. % of activity remaining at 1 µM: -2%
[34]; 10 µM
  Gao et al. % of activity remaining at 10 µM: 1%

— article PMC5560747, “Computational-experimental approach to drug-target interaction mapping: A case study on kinase inhibitors” (PLoS Computational Biology, 2017)
